Source: patent US7968535B2, “Use of azapaullones for preventing and treating pancreatic autoimmune disorders” (Develogen Atkiengesellschaft, priority 2005, dated 2011)

Tests used:
INS-1E cells [1] = experiment: DNA-fragmentation ELISA in glucose/palmitate stressed cells; format: cell-based, rat; details: 2.5 μM, glucose/palmitate 24 hours
Description: (§1) The effects of the substance on cell viability, cell growth and specific apoptotic events such as caspases activity and DNA-fragmentation was monitored. INS-1E cell apoptosis was induced by treatment of cell cultures with toxic concentrations of glucose and palmitate for 24 hours. The substance of interest was added to the medium 1 hour prior to the addition of the toxic agents.
DNA-fragmentation is a comparatively late apoptotic event comprising storage of nucleosomal DNA-fragments as mono- and oligo nucleosomes in the cytoplasm. The incubation of INS1-E cells with high concentrations of glucose and palmitate for 24 hours leads to DNA breakdown and the accumulation of nucleosomal DNA fragments in the cytoplasm. The detectable amount of cytosolic nucleosomal DNA fragments was reduced by about 17%, when cells were treated with the apoptosis inducing agents in combination with 10 μM 4-AKP.
(§2) 10,000 Ins-1E cells were seeded per 96-well (black 96-well tissue culture plates, Falcon #353948) in 100 μl culture medium (RPMI 1640 containing 11 mM glucose, 5% FCS, 10 mM HEPES, 50 μM 2-mercaptoethanol, 1 mM MEM sodium pyruvate, 100 U/ml penicillin, 100 μg/ml streptomycin) and cultivated at 37° C., 5% CO2 in humidified atmosphere for 3 days. Media was changed to 100 μl starvation medium (culture medium with only 5 mM glucose, 1% FCS) and the cells were re-incubated for 1 day. Then media was exchanged to starvation medium containing test substances.
(§3) Apoptosis of Ins-1E cells was induced by addition of a combination of BSA coupled palmitate and glucose (pal/gluc) or a combination of cytokines (cyt) 1 hour after starting the treatment with test substances: pal/gluc: 0.3 mM palmitate:BSA (palmitic acid sodium salt:fatty acid free BSA 6:1) and 25 mM glucose. 10×cyt: 0.04 ng/ml IL-1β and 1 ng/ml IFNγ. The cells were further incubated with test substances and apoptotic inducer for 24 hours.
DNA-fragmentation is a late apoptotic event comprising storage of nucleosomal DNA-fragments as mono- and oligo nucleosomes in the cytoplasm. Their concentration was determined by ELISA (Cell death detection ELISA, Roche, cat. No. 1774425) according to the manufacturers guidelines.

INS-1E cells [2] = experiment: Caspase activity assay in glucose/palmitate stressed cells; format: cell-based, rat; details: 2.5 μM
Description: as §1
Caspase activation is a characteristic of early apoptotic cells. The experiment was carried out as described above with the exception that the caspases activity assay was applied instead of the DNA-fragmentation assay (see Example 3 for details).
as §2, §3
Caspase activity is a characteristic of early apoptotic cells. Their activity was quantified by an enzymatic assay (homogeneous caspases assay, Roche, cat. No. 03 005 372 001). Caspase activity was measured 3 hours after addition of caspases substrate according to the manufacturers guidelines.

primary rat beta cells = experiment: Replication of primary rat beta cells (Ki67/C-peptide immunofluorescence); format: cell-based; details: islets treated for 72 hours
Description: Cells expressing the proliferation marker Ki67 as well as C-peptide were considered to be replicating beta cells. The percentage of replicating beta cells in islets not exposed to compound 10c (Co.) and islet treated for 72 hours with the indicated amounts of compound 10c was determined by immunofluorescence microscopy.
Isolated rat islets were cultured for 72 hours in the presence of compound 10c before the islets were disaggregated and dispersed on microscope slides. Replicating beta cells were identified by immunohistological staining of dispersed islets with antibodies against C-peptide, a proteolytic fragment of proinsulin, and the cell division marker Ki-67.
Islets of Langerhans are isolated by standard Liberase digestion method from rat pancreata (Liberase™ Cl enzyme blend BMB Cat. #1814-435, ROCHE).
Freshly isolated islets are cultured in vitro with or without the addition of the factor of interest for 48 h. Following the culture period the islets are dispersed gently by titration in Ca^2+ and Mg^2+ free PBS. […]
An Olympus microscope equipped with an automatic image acquisition device (Olympus) is used for counting of C-peptide positive beta cells. Proliferating C-peptide/Ki-67 double positive beta cells are counted manually. Thereby the fraction of proliferating beta cells can be determined.

[3] = system: panel of 28 protein kinases; experiment: KinaseProfiler biochemical kinase activity assays; details: tested in parallel with 1-Azakenpaullone
Description: Experiments were carried out by Upstate Ltd. according to the protocols described in KinaseProfiler™ Assay Protocols Fall 2004 by Ustate Cell Signaling solutions.
Compounds 10c and e are structurally very similar to 1-Azakenpaullone and differ only by one substituent at position 9 of the D ring from their template 1-Azakenpaullone. […] These kinases were selected among about 250 different kinases based on their structural or functional similarity to GSK3, e.g. all available members of the CDK family were included in the survey because CDKs are most similar to GSK3 and several kinase inhibitors are known that inhibit members of both families. The direct comparison of different compounds in such an experiment provides information on the relative selectivity of the respective compounds.

[4] = target: T1, cyclin dependent kinase 1 (Homo sapiens, UniProt P06493); experiment: IC50 Profiler Express kinase assay; format: biochemical
T1 construct: purchased Upstate Ltd. (IC50 Profiler Express service)
Description: (§4) Experiments were carried out by Upstate Ltd. according to the protocols described in KinaseProfiler™ Assay Protocols, IC50 Profiler Express™ (10-point curves in duplicate) Fall 2004 by Ustate Cell Signaling solutions.

human GSK3 = experiment: IC50 Profiler Express kinase assay; format: biochemical; details: 10-point curves in duplicate
Description: as §4

T1 sequence (P06493 whole entry, species assumed): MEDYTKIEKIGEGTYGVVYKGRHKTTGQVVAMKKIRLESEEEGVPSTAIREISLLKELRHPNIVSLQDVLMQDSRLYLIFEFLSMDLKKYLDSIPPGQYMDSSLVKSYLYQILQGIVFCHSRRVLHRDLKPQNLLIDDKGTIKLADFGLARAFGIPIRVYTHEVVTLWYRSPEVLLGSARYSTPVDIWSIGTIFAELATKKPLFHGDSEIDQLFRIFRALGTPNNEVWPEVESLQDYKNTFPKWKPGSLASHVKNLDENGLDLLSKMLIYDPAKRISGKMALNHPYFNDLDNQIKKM
T1 sequence (P14635 whole entry partner, species assumed): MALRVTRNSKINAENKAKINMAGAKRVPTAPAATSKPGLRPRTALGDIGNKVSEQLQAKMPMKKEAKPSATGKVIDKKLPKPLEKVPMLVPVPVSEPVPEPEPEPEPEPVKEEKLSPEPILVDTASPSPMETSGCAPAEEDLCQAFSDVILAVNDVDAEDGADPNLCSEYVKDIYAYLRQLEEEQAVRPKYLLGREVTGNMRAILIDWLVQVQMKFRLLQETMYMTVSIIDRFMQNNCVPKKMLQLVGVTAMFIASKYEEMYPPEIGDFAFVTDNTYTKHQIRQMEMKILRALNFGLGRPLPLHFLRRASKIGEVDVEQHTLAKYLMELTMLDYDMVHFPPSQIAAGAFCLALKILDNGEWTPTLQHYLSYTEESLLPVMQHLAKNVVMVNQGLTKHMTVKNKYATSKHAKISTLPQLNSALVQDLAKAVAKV

N#Cc1ccc2[nH]c3c(c2c1)CC(=O)Nc1cccnc1-3 [Compound 10c, 6-Oxo-5,6,7,12-tetrahydropyrido[3′,2′:2,3]azepino[4,5-b]indole-9-carbonitrile]
reduction of cytosolic DNA-fragments (INS-1E cells [1]): 74%
reduction of caspase activity (INS-1E cells [2]): 77%
replication of primary rat beta cells in culture (primary rat beta cells): stimulates the replication
kinase selectivity / activity profile [3]: selective kinase inhibitors
affinity to CDK1 relative to 1-Azakenpaullone [4]: higher affinity to CDK1 than the reference compound 1-Azakenpaullone
inhibition of the enzymatic activity of cyclin dependent kinase 1 ([4]; compared with GSK3): comparatively higher concentration of this inhibitor are required
inhibition of human GSK3 (human GSK3): potent inhibitor
